Assay results taken from PMC2712759, “Hsp70 Chaperones and Type I PRMTs Are Sequestered at Intranuclear Inclusions Caused by Polyalanine Expansions in PABPN1” (PLoS ONE, 2009).

What was measured:
PABPN1 [1] = target: T1, PABPN1 (Homo sapiens, UniProt Q86U42); experiment: ANS fluorescence titration; type: binding
T1 construct: recombinant full-length (306 aa for normal PABPN1, 10-Ala tract, N-terminus M-(A)10-GAAGGRG); details in supplement S1
T1 sequence (Q86U42 1-306): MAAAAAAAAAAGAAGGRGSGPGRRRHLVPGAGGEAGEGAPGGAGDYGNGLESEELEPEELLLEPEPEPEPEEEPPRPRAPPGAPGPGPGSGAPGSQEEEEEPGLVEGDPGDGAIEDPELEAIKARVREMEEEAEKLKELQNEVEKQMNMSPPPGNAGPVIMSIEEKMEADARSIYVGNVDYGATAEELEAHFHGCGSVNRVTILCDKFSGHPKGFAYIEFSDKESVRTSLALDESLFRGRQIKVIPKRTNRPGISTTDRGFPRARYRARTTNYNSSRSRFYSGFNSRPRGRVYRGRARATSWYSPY

PABPN1 [2] = target: T2, PABPN1 (Homo sapiens, UniProt Q86U42, INS11AAAAAAA); experiment: ANS fluorescence titration; type: binding
T2 construct: recombinant full-length (306 aa for normal PABPN1, 10-Ala tract, N-terminus M-(A)10-GAAGGRG); details in supplement S1
T2 sequence (Q86U42 with tags, fused parts or gaps INS11AAAAAAA): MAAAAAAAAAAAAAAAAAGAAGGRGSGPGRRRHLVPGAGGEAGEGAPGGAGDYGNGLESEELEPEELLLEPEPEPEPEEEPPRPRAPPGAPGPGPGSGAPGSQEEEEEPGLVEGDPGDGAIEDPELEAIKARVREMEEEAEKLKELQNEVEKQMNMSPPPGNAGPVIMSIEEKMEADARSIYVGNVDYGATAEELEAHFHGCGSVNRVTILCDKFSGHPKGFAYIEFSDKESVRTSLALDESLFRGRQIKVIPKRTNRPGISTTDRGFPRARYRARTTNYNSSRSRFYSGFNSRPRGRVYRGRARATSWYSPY

Kd (PABPN1 [1]): 75 µM | Kd (PABPN1 [2]): 42 µM
SMILES: O=S(=O)(O)c1cccc2cccc(Nc3ccccc3)c12 [1-Anilino naphthalene-8-sulfonic acid]
